# Measured values taken from patent US20140314791A1, “METHODS OF TREATING CANCER” (DANA-FARBER CANCER INSTITUTE, INC., priority 2012, published 2014).
# Columns and labels:
# Assay type in all cases: cell-based, mouse
# Lkb1-null cells = test: IdU pulse-labeling after Dtymk knockdown, Lkb1-null; details: for proportion of cells labeled with IdU: mean
# Description: (E) Lkb1-wt and Lkb1-null cells in 6-well plates were transduced with shDtymk-1 or shGFP. Two sets of the cells were plated into multiple chamber slides: one was 2 days and the other was 3 days post transduction. After overnight culturing, the cells were labeled with 100 μM IdU for 20 min then fixed for indirect immunofluorescence staining with anti-BrdU. The data represent mean±SD for 200˜300 cells. Representative merged images of BrdU (red) and DAPI (blue) in the indicated cells are shown (F).
# The lower expression of DTYMK in Lkb1-null cells causes the cells to be in jeopardy of DNA damage. To investigate how further knockdown of Dtymk and the consequent decrease in the dTTP pool could affect DNA metabolism, IdU pulse-labeling in Lkb1-wt and Lkb1-null cells was performed 2.5 and 3.5 days post-transduction with shDtymk-1. […] The representative images of Lkb1-wt and Lkb1-null cells co-stained for IdU and DAPI are shown (FIG. 5F). In addition, an overall lower proportion of labeled Lkb1-null than Lkb1-wt cells (43.1% vs. 57.7%) was observed, which may be related to the lower dNTP levels in Lkb1-null cells.
# [1] = system: dTMP and dTDP levels in Lkb1-wt 634 and Lkb1-null t4 cells; test: Metabolite analysis of dTMP and dTDP after Dtymk knockdown; details: 3 days
# Description: (A) Graph of dTMP and dTDP levels in Lkb1-wt 634, Lkb1-null t4, and human LKB1-deficient NSCLC A549 cells transduced with the indicated shRNA for 3 days. The data represent mean±SD for 6 replicates.
# Cells were plated into 6-well plates in RPMI 1640/10% dialyzed FBS/1% pen/strep and medium was changed daily. When the cells reached 80% confluence, they were washed 3 times with warm washing buffer (75 mM ammonium carbonate, pH7.4), and plates were then immediately placed on dry ice. 500 μl of extraction buffer (80% methanol, −80° C.) was added to each well and the plates were kept on dry ice for 15 min. The supernatants were collected into 1.5 ml eppendorf tubes, and another 500 μl of cold extraction buffer was added to each well. After 15 min incubation on dry ice, the supernatant and the cells were collected and pooled with the previously collected supernatant. The tubes were spun at 3750 rpm/4° C. for 30 min, and then supernatants were transferred into fresh tubes and saved at −80° C. All reactions were performed with 5 replicates.
# Prior to mass spectrometer injection, dried extracts were reconstituted in LCMS grade water. Non-targeted, flow-injection time-of-flight mass spectrometry was performed as described (Fuhrer et al., 2011). […] Mass spectra were recorded from m/z 50 to 1000 with a frequency of 1.4 spectra/s for 0.48 min using the highest resolving power (4 GHz HiRes). […]
# [2] = system: Lkb1-wt (634, 855, and 857) and Lkb1-null (t2, t4, and t5) cells; test: Proliferation assay of shRNA-transduced cells (CellTiter-Glo); details: in vitro, puromycin 3 μg/ml
# Description: Viable cells were measured daily using Promega's CellTiter-Glo Assay. Two independent sets of transductions into the 6 cell lines were shown: the first set used shGFP, shDtymk-1, and shChek1-4 (upper panels), and the second set used shGFP, shDtymk-3, and shChek1-1 (lower panels).
# Lentiviral production and target cell transduction were performed according to previously description (Moffat et al., 2006). Briefly, 293T cells were co-transfected with pLenti-vector, pCMV-dR8.74psPAX2, and pMD2.G using TransIT-LT1 transfection reagent (Mirus). Thirty-six h after transfection, the supernatant was harvested and spun at 3000 rpm/4° C. for 10 min, and then incubated with target cells in the presence of 8 μg/ml polybrene (Sigma) for 24 h. Two days after infection, the cells were collected for further analysis as indicated in the presence of 3 μg/ml Puromycin (Invitrogen).
# Cells were plated into 96-well plates at 2000 cells per well in 100 μl, with addition of puromycin at 3 μg/ml for shRNA lentivirus infected cells, or with addition of variable doses of drug for drug treatment effects. Viable cells were measured daily or for a period of up to 3 days either by CellTiter-Glo Luminescent Cell Viability Assay (Promega) or by Cell Counting Kit-8 (CCK-8) (Dojindo) according to the manufacturer's instructions. All proliferation assays were performed in triplicate wells.
# Depletion of DTYMK and CHEK1 was confirmed by Western blot (FIG. 11B).
substance,measurement,setting,value
shDtymk-1: shRNA hairpin CAAGCTTCTGAATTCCTACTT targeting Mouse Dtymk,proportion of cells labeled with IdU,Lkb1-null cells; day 2.5 post infection,17.2%
same,proportion of cells labeled with IdU,Lkb1-null cells; day 3.5 post infection,5.8%
same,drop of proportion of IdU-labeled cells,Lkb1-null cells; in 3.5 days,86.5%
same,dTDP level,[1],moderate decrease
same,dTMP level,[1],significant increase
same,"cell growth compared to shGFP control, Lkb1-null versus Lkb1-wt",[2],inhibition was stronger in Lkb1-null cells
